According to patent US7534766B2, “Glucuronide metabolites and epimers thereof of tigecycline” (Wyeth, priority 2004, dated 2009):
Where two headings read alike, the source gives them in different places. Blank lines part the entries; values can stand above or below the molecule they belong to.

Experiments:
[1] = LC/MS characterization of tigecycline related compounds in human serum, urine and feces; assay type: in vivo; conditions: in vivo
Source text: Three HPLC conditions were used during LC/MS analysis in this study. LC/MS Condition 1 was used for the majority of sample analyses for metabolite characterization and to isolate metabolite M3a from urine. LC/MS Condition 2 was used on selected samples to increase the retention time of glucuronide metabolites and for a co-chromatography experiment to confirm the identity of metabolites M8 and M9. LC/MS Condition 3 was used to analyze the polar metabolite M3a isolated from human urine.
The UV detector was set to monitor 340-360 nm. […] The flow rate was 0.2 mL/min. […] The linear mobile phase gradient is shown below.
Separations were accomplished on a Phenomenex Luna C18(2) column (250×2.0 mm, 5 μm) with a Uniguard C18 guard column (10×2 mm) (ThermoHypersil-Keystone). The flow rate was 0.2 mL/min. […] Mobile phase A was 0.02% trifluoroacetic acid in water (v/v) and mobile phase B was 0.02% trifluoroacetic acid in acetonitrile (v/v). The linear mobile phase gradient is shown below.
A Micromass Quattro Ultima triple quadrupole mass spectrometer (Waters Corp.) was operated in the positive ionization mode. LC/MS analysis with electrospray ionization (ESI) was conducted using a Z-spray interface. ESI-MS analysis of individual fractions from selected samples was conducted by direct infusion into a nanospray interface. Settings for the mass spectrometer are listed below.
Urine and feces samples were analyzed for tigecycline metabolites by LC/MS/MS analysis for precursors of product ions characteristic of tigecycline. Additionally, potential metabolites of tigecycline were searched for in the LC/MS data based upon results from previous studies in animals and humans.
Serum extracts were analyzed for tigecycline and selected metabolites by LC/MS/MS in the selected reaction monitoring (SRM) mode (LC/SRM) to reduce interference from endogenous components. […] The following tigecycline related components were monitored.

[2] = LC/MS detection of tigecycline metabolites in CD-1 mouse serum and urine after intravenous tigecycline; conditions: mouse, in vivo, iv, 5 mg/kg
Description: Fifteen male CD-1 mice, with an average weight of 31.3 g at the time of dosing, were used. Animals were given food and water ad libitum. Mice in the 0.5 and 2 hour blood collection groups were housed in standard cages, while those in the 4 hour blood collection group were housed in metabolism cages for the collection of urine. Mice were dosed by the Bioresources Department at Wyeth Research, Collegeville, Pa.
For mice and rabbits, the intravenous dosing solutions was prepared by dissolving 50 mg of tigecycline in 5.0 mL of 0.9% sterile saline solution to make a working stock solution. The working stock solution was diluted with 0.9% sterile saline solution to 0.5 mg/mL for mice and 4 mg/mL for rabbits. The mouse dose (5 mg/kg, 10 mL/kg) was administered as a bolus injection via the tail vein. The rabbit dose (4 mg/kg, 1 mL/kg) was administered as a bolus injection via the marginal vein of the ear.
For mice (n=5/time point), blood (approximately 0.7 mL) was collected by cardiac puncture at 0.5, 2 and 4 hours following administration of tigecycline. For rabbits, blood (approximately 7 mL) was collected via the ear vein at 0.5, 2 and 6 hours following the tigecycline dose. Serum was separated following clot formation at room temperature and centrifugation for 15 minutes at 4° C. and 3000 rpm. The serum was transferred to a fresh tube and was stored at approximately −70° C. until analysis as described below under “Serum Sample Preparation for LC/MS Analysis. In addition, urine was collected from mice in the 4 hour blood collection group and was stored at approximately −70° C. until analysis, as described below under “Urine Sample Preparation for LC/MS Analysis.”
Mouse urine was thawed and an aliquot (1 mL) transferred to a fresh tube. The sample was centrifuged at 14,000 rpm and room temperature for 10 minutes using a Model 5415C Eppendorf centrifuge (Brinkmann Instruments, Westbury, N.Y.) to remove any particulates. The sample was then transferred to a fresh tube and was analyzed by LC/MS, as described below under “Liquid Chromatography/Mass Spectrometry Analysis.”.
Mouse and rabbit serum samples were pooled at each collection time and analyzed for tigecycline, its epimer, tigecycline glucuronide (M7 and its epimer M6), 9-aminominocycline (M3) and N-acetyl-9-aminominocycline (M9 and its epimer M8). Aliquots of serum (500 μL) were transferred to new tubes and deuterated tigecycline (30 ng/mL final concentration) was added as an internal standard (quantitative analysis only). EDTA (40 μL of 0.5 M EDTA) was added to each sample and the samples vortex mixed. Acetonitrile (500 μL) was added to each sample, samples were vortex mixed and denatured protein separated by centrifugation at 14,000 rpm and room temperature for 10 minutes using a Model 5415C Eppendorf centrifuge (Brinkmann Instruments). The supernatant was transferred to a fresh tube and the solvent evaporated under a stream of nitrogen using a Turbovap Model LV evaporator (Caliper Life Sciences, Hopkinton, Mass.).
The HPLC system used for mass spectrometric analysis was a Waters Alliance Model 2695 HPLC system (Waters Corp., Milford, Mass.). It was equipped with a built-in autosampler and a Model 996 diode array UV detector. The UV detector was set to monitor 210-400 nm. Separations for metabolite characterization were accomplished on a Phenomenex Luna C18(2) column (150×2.1 mm, 5 μm) (Phenomenex, Torrance, Calif.) equipped with a Keystone Uniguard C18 guard column (10×2.1 mm) (Thermo Electron Corp., Bellefonte, Pa.). The column temperature was 25° C. The flow rate was 0.2 mL/min. Mobile phase A was 10 mM ammonium acetate in water and mobile phase B was acetonitrile.

[3] = Tigecycline metabolites identified in CD-1 mouse serum and urine and rabbit serum samples (LC/MS); assay type: in vivo; conditions: in vivo, iv
Description: The column temperature was 25° C. The flow rate was 0.2 mL/min. […] Gradient 1 was used for metabolite identification (qualitative analysis).
LC/MS analysis was conducted on extracts of serum and from CD-1 mice and rabbits, and on urine from CD-1 mice. The mass spectral data for tigecycline and its metabolites are discussed below.

[4] = dogs, cited from earlier work
[5] = rats, cited from earlier work
[6] = Stability of [14C]tigecycline during extraction from control human serum; assay type: in vitro ADME
Source text: In serum samples, [^14C]tigecycline accounted for 94% of the radioactivity prior to spiking and extracting the samples. After the extraction process, the amount of [^14C]tigecycline had decreased 24% to 70% of the radioactivity. There was a corresponding increase in other radioactive components, mainly the epimer of tigecycline, which increased from 4% prior to extraction to 22% following the extraction. Other minor products, which included M3a, increased from 2% prior to extraction to 8% following the extraction.
Additional serum samples were prepared as descried above and extracted. This was done to determine the effects, if any, of the extraction process on the stability of [^14C]tigecycline. These samples were analyzed by HPLC with radioactivity flow detection, as described in example 6.

[7] = Mass balance: percent of [14C]tigecycline dose excreted in human urine and feces
Description: The concentration of tigecycline-related components in serum, urine and feces was calculated based on the total radioactivity concentrations reported elsewhere. These concentrations were converted to ng-tigecycline equivalents using the specific activity of the dose (1.00 μCi/mg). Using this value, the concentrations of the specific components were then estimated based on the distribution of radioactivity in the radiochromatograms.
(§1) An open-label, inpatient, multiple-dose tigecycline, single-dose [^14C]tigecycline metabolic disposition and mass balance study was performed in six healthy male volunteers. The clinical protocol called for twelve subjects. Of these twelve, six received the radioactive dose (subjects 1, 4, 5, 6, 7, and 8 with subject 8 later dropping out of the study.) Eligible subjects were selected based on inclusion/exclusion criteria, medical history, physical examination and additional procedures outlined in the study protocol. Each subject received a 100 mg loading dose on the morning of Day 1, followed by a 50 mg maintenance dose every 12 hours for an additional 5 doses. On the morning of study Day 4, six subjects received a single 50 mg dose of [^14C]tigecycline (50 μCi). Each tigecycline dose was administered via a 30-minute intravenous infusion.
(§2) Serum samples were collected for metabolite profiling prior to tigecycline dosing and 1, 4, 8, 24 and 48 hours following the [^14C]-labeled dose. For metabolite profiling, urine samples were collected at 0-4, 4-8, 8-24 and 24-48 hours and fecal samples were collected up to 48 hours following the [^14C]-labeled dose. Serum and urine samples, and fecal homogenates were shipped on dry ice to the Biotransformation Division of Drug Safety and Metabolism, Wyeth Research, Collegeville, Pa. The details of the sample collection and sample storage are described in the mass balance portion of the study. The 24-48 hour urine and fecal samples for subject #6 were incomplete since the subject withdrew from the study. While samples from this subject were used for metabolite profiling, the samples were not included in the mass balance calculations.

[8] = Stability of [14C]tigecycline in control human urine incubated at 37° C.; conditions: for percent of radioactivity in spiked control urine: 37° C., 5 μg/mL
Description: The stability of [^14C]tigecycline was determined in control human urine spiked with [^14C]tigecycline at 5 μg/mL and incubated at 37° C. […] Aliquots (500 μL) were removed at 0, 1, 4, 8 and 24 hours and placed into fresh vials. These urine samples were processed and analyzed as described for serum in control example 2.

[9] = Stability of [14C]tigecycline during extraction from control human fecal homogenates; assay type: in vitro ADME
Source text: Similar results were observed following the extraction of [^14C]tigecycline from control fecal homogenates. In these samples, [^14C]tigecycline accounted for 94% of the radioactivity prior to extraction and 68% following the extraction. There was a corresponding increase in the epimer of tigecycline, which represented 4% of the radioactivity prior to extraction and 23% following the extraction. […] Other minor products represented less than 1% of the radioactivity prior to the extraction and 4% following the extraction.
The stability of [^14C]tigecycline during the extraction process was determined in control human fecal homogenates spiked with [^14C]tigecycline at 5 μg/g of homogenate. […] Samples were extracted and analyzed by HPLC with radioactivity flow detection.

[10] = Stability of [14C]tigecycline in control human serum incubated at 37° C.; conditions: for percent radioactivity in spiked control serum: 37° C., 3 μg/mL
Description: The stability of [^14C]tigecycline was examined in control serum incubated at 37° C. for up to 24 hours.
The stability of [^14C]tigecycline was determined in control human serum spiked with [^14C]tigecycline at 3 μg/mL and incubated at 37° C. […] Aliquots (500 μL) were removed at 0, 1, 4, 8 and 24 hours and placed into fresh vials. EDTA (40 μL of 0.5 M) was added and samples centrifuged at 14,000 rpm and room temperature for 10 min (Eppendorf centrifuge, Model 5415C). Supernatants were transferred to HPLC vials and analyzed by HPLC with radioactivity flow detection.

[11] = in vivo
Description: as §1, §2
Urine samples for metabolite profiling were extracted, as discussed below, using a method previously developed and used for rat and dog urine samples. Urine samples that had been collected at various intervals up to 48 hours following the dose of [^14C]tigecycline were thawed on ice prior to extraction. Aliquots (1 mL) of the individual urine samples were transferred to clean tubes and 0.2 M EDTA, for a final concentration of 40 mM EDTA, was added. […] Samples were mixed, centrifuged and the supernatants analyzed for metabolites by HPLC radiochromatography with selected samples also analyzed by LC/MS.
HPLC analyses were performed using a Waters 2695 Alliance Separation Module (Waters Corp., Milford, Mass.), a Waters Model 2487 dual wavelength UV absorbance detector, set to monitor 350 nm, and was in-line with a Gilson 215 liquid handler (Gilson, Middleton, Wis.) equipped to collect fractions at 20 second intervals. Fractions were collected into 96-well deep well Luma plates and analyzed using TopCount NXT. The autosampler temperature was set to 4° C. […]

relative amount in human serum based on LC/MS data [1]: minor metabolites
relative amount in human urine based on LC/MS data [1]: minor metabolites
Molecule: CC(=O)Nc1cc(N(C)C)c2c(c1O)C(=O)C1=C(O)[C@]3(O)C(=O)C(C(N)=O)=C(O)[C@H](N(C)C)[C@@H]3C[C@@H]1C2 (single isomer, unassigned) [Metabolite M8, epimer of N-acetyl-9-aminominocycline]

observed in mouse urine by LC/MS [2]: detected
Species and matrix in which identified [3]: R-S, M-S, M-U
relative amount in human serum based on LC/MS data [1]: minor metabolites
relative amount in human urine based on LC/MS data [1]: minor metabolites
Molecule: CN(C)c1cc(N)c(O)c2c1C[C@H]1C[C@H]3[C@H](N(C)C)C(=O)C(C(N)=O)=C(O)[C@@]3(O)C(=O)C1=C2O [Metabolite M3, 9-aminominocycline]

Molecule: CN(C)c1cc(N[14C](=O)CNC(C)(C)C)c(O)c2c1CC1CC3C(N(C)C)C(O)=C(C(N)=O)C(=O)C3(O)C(O)=C1C2=O (centres unmarked) [[^14C]tigecycline]
single intravenous [14C]tigecycline dose recovered ([4]; including cage rinse): approximately 89%
dose recovered in feces [4]: 47%
dose recovered in urine [4]: 36%
single intravenous [14C]tigecycline dose recovered ([5]; including cage rinse): approximately 89%
dose recovered in feces [5]: 53%
dose recovered in urine [5]: 34%
percent of the radioactivity, control serum ([6]; after the extraction process): 70%
decrease in percent of the radioactivity, control serum ([6]; during the extraction process): 24%
percent of the radioactivity, control serum ([6]; prior to spiking and extracting): 94%
radioactivity excreted in feces (mean) ([7]; complete collection, n=3): 58.6±4.4%
radioactivity excreted in urine (mean) ([7]; complete collection, n=3): 33.2±1.9%
[14C]tigecycline dose recovered ([7]; first 48 hours, urine + feces): Approximately 50%
Mean total recovery of radioactivity in human excreta ([7]; urine + feces, n=3): 91.8%
percent of radioactivity in spiked control urine ([8]; 0 hours): 92%
decrease in percent of radioactivity in spiked control urine ([8]; 0 to 24 hours at 37° C.): 18%
percent of radioactivity in spiked control urine ([8]; 24 hours): 74%
percent of the radioactivity, control fecal homogenates ([9]; following the extraction): 68%
percent of the radioactivity, control fecal homogenates ([9]; prior to extraction, 5 μg/g of homogenate): 94%
percent radioactivity in spiked control serum ([10]; 0 hours): 90%
percent radioactivity in spiked control serum ([10]; 24 hours): 81%
decrease in percent radioactivity in spiked control serum ([10]; over 24 hours at 37° C.): approximately 9%

percent of the radioactivity in urine [11]: less than 1%
relative amount in human urine based on LC/MS data [1]: trace amounts
Molecule: Hydroxy Tigecycline [Metabolite M1]
